≈ marks a conversion by molar mass, not a printed value. Calls of active or inactive are those of the source. The calls are words filed in the database; no cut-off is given here.
Key:
[1] = tested on: Mycobacterium tuberculosis; assay: Antimycobacterial activity against Mycobacterium tuberculosis H37Rv ATCC 27294 assessed as inhibition of bacterial growth incubated for 7 days by broth dilution method; assay type: functional; conditions: H37Rv ATCC 27294, 168 h, time 7 day
[2] = tested on: Mycobacterium tuberculosis; assay: Myco-bactericidal activity against Mycobacterium tuberculosis H37Rv ATCC 27294 assessed as inhibition of bacterial colony formation incubated for 7 days by agar plate method; assay type: functional; conditions: H37Rv ATCC 27294, 168 h, time 7 day, read-out: MBC99.9
[3] = Ratio of MIC90 for antimycobacterial activity against Mycobacterium bovis BCG B47-2 harboring mmpL3 G2041A/V681I mutant to MIC90 for antimycobacterial activity against wild type Mycobacterium bovis BCG ATCC 35734; assay type: functional
[4] = Selectivity index, ratio of IC50 for cytotoxicity against African green monkey Vero E6 cells to MIC50 for antimycobacterial activity against Mycobacterium tuberculosis H37Rv ATCC 27294; assay type: toxicity, cell-based, Vero C1008; conditions: read-out: Selectivity Index
[5] = Half life in rat liver microsomes at 200 uM incubated for 5 mins followed by NADPH addition and measured for 45 mins by LC-MS/MS analysis; assay type: ADME, Microsome; conditions: time 50 min
[6] = Ratio of MIC90 for antimycobacterial activity against Mycobacterium bovis BCG B47-4 harboring mmpL3 C1932G/F644L mutant to MIC90 for antimycobacterial activity against wild type Mycobacterium bovis BCG ATCC 35734; assay type: functional
[7] = Effective permeability coefficient of the compound at 500 uM incubated for 18 hrs under agitation condition by PAMPA assay; assay type: ADME; conditions: for Papp at 18 h, 500 µM: PAMPA, read-out: Peff
[8] = Ratio of MIC90 for antimycobacterial activity against Mycobacterium bovis BCG B16-2 harboring mmpL3 C1932A/F644L mutant to MIC90 for antimycobacterial activity against wild type Mycobacterium bovis BCG ATCC 35734; assay type: functional
[9] = Aqueous solubility of the compound in aqueous buffer at 100 uM incubated for 24 hrs under agitation condition by UV-Vis spectrophotometric analysis; assay type: physicochemical
[10] = Ratio of MIC90 for antimycobacterial activity against Mycobacterium bovis BCG B47-1 harboring mmpL3 C1932G/F644L mutant to MIC90 for antimycobacterial activity against wild type Mycobacterium bovis BCG ATCC 35734; assay type: functional
[11] = Ratio of MIC90 for antimycobacterial activity against Mycobacterium bovis BCG B16-1 harboring mmpL3 C1932G/F644L mutant to MIC90 for antimycobacterial activity against wild type Mycobacterium bovis BCG ATCC 35734; assay type: functional
[12] = Ratio of MIC90 for antimycobacterial activity against Mycobacterium bovis BCG B47-3 harboring mmpL3 T1930C/F644L mutant to MIC90 for antimycobacterial activity against wild type Mycobacterium bovis BCG ATCC 35734; assay type: functional
[13] = Ratio of MIC90 for antimycobacterial activity against Mycobacterium bovis BCG B33-1 harboring mmpL3 C1932G/F644L mutant to MIC90 for antimycobacterial activity against wild type Mycobacterium bovis BCG ATCC 35734; assay type: functional
[14] = Ratio of MIC90 for antimycobacterial activity against Mycobacterium bovis BCG B33-2 harboring mmpL3 C765G/F255L mutant to MIC90 for antimycobacterial activity against wild type Mycobacterium bovis BCG ATCC 35734; assay type: functional
[15] = Cytotoxicity against African green monkey Vero E6 cells assessed as reduction in cell viability incubated for 48 hrs by MTS assay; assay type: toxicity, cell-based, Chlorocebus sabaeus, Vero C1008
[16] = tested on: Mycolicibacterium smegmatis; assay: Disruption of proton motive force in Mycobacterium smegmatis spheroplasts assessed as disruption of proton gradient by measuring acidification of intracellular spaces within spheroplasts at 2XMIC90 measured after 30 mins by BCECF-AM dye based fluorescence analysis; assay type: functional, organism-based
[17] = Selectivity index, ratio of IC50 for cytotoxicity against African green monkey Vero E6 cells to MIC50 for antimycobacterial activity against Mycobacterium bovis BCG ATCC 35734; assay type: toxicity, cell-based, Vero C1008; conditions: read-out: Selectivity Index
[18] = tested on: Mycolicibacterium smegmatis; assay: Disruption of proton motive force in Mycobacterium smegmatis spheroplasts assessed as disruption of proton gradient by measuring acidification of intracellular spaces within spheroplasts at 2 to 5 uM measured after 30 mins by BCECF-AM dye based fluorescence analysis; assay type: functional, organism-based; conditions: dose 2-5 µM

NNC(=O)c1ccncc1 [ISONIAZID]
MIC50 [1]: 1.8 µM (≈ 0.247 µg/mL) | MIC90 [1]: 3.8 µM (≈ 0.521 µg/mL) | MBC [2]: 3.2 µM (≈ 0.439 µg/mL)

FC(F)(F)c1ccc2cc(CNC3CCCCCCC3)[nH]c2c1
Ratio [3]: 5 | selectivity ratio [4]: 366 | half-life at 200 µM [5]: 8.2 min | Ratio [6]: 5 | Papp at 18 h, 500 µM [7]: 134 nm/s | Ratio [8]: 5 | MIC50 [1]: 0.05 µM (≈ 0.0162 µg/mL) | MIC90 [1]: 0.13 µM (≈ 0.0422 µg/mL) | MBC [2]: 0.63 µM (≈ 0.204 µg/mL) | solubility at 24 h, 100 µM [9]: 31 µM (≈ 10.1 µg/mL) | Ratio [10]: 5 | Ratio [11]: 5 | Ratio [12]: 5 | Ratio [13]: 5 | Ratio [14]: 5 | IC50 at 48 h [15]: 22 µM | Activity [16]: inactive | selectivity ratio [17]: 550

Cc1cc(C)c2cc(CNC3CCCCCCC3)[nH]c2c1
Papp at 18 h, 500 µM [7]: 184 nm/s | MIC90 [1]: 0.31 µM (≈ 0.0882 µg/mL) | solubility at 24 h, 100 µM [9]: 70.1 µM (≈ 19.9 µg/mL)

C[C@@H]1[C@H]2C[C@@H](C[C@H]1NC(=O)c1cc3c(F)cc(F)cc3[nH]1)C2(C)C
MIC90 [1]: 0.012 µM (≈ 0.00399 µg/mL)

O=C(NC1CCCCCCC1)c1cc2ccc(C(F)(F)F)cc2[nH]1
Ratio [3]: 5 | selectivity ratio [4]: > 5000 | half-life at 200 µM [5]: 25.6 min | Ratio [6]: 5 | Papp at 18 h, 500 µM [7]: 3.4 nm/s | Ratio [8]: 5 | MIC50 [1]: 0.02 µM (≈ 0.00677 µg/mL) | MIC90 [1]: 0.04 µM (≈ 0.0135 µg/mL) | MBC [2]: 0.08 µM (≈ 0.0271 µg/mL) | solubility at 24 h, 100 µM [9]: 2.2 µM (≈ 0.744 µg/mL) | Ratio [10]: 5 | Ratio [11]: 5 | Ratio [12]: 5 | Ratio [13]: 5 | Ratio [14]: 5 | IC50 at 48 h [15]: > 100 µM | Activity [16]: inactive | selectivity ratio [17]: > 5000

N#CC(C#N)=NNc1cccc(Cl)c1
Activity [18]: Active

O=C(NC1CCCCCCC1)c1cc2ccccc2s1
solubility at 24 h, 100 µM [9]: 3.3 µM (≈ 0.949 µg/mL) | Activity [16]: inactive

Cc1c(CN2CCN(C)CC2)cc(-c2ccc(Cl)cc2)n1-c1ccc(Cl)cc1
Activity [16]: inactive

CC1(C)CCC(NC(=O)c2cc3c(F)cc(F)cc3[nH]2)CC1
MIC50 [1]: 0.023 µM (≈ 0.00705 µg/mL)

O=C(NC1CCC2(CCCCC2)CC1)c1cc2c(F)cc(F)cc2[nH]1
MIC90 [1]: 0.003 µM (≈ 0.00104 µg/mL)

O=C(NC1CCCCCCC1)c1cc2ccccc2[nH]1
solubility at 24 h, 100 µM [9]: 2.4 µM (≈ 0.649 µg/mL)

O=C(NC1C2CC3CC(C2)CC1C3)c1cc2cc(Cl)ccc2[nH]1 (stereo not given)
MIC90 [1]: 0.47 µM (≈ 0.155 µg/mL)

O=C(NC1CCCCCCC1)c1cc2ccccc2[se]1
solubility at 24 h, 100 µM [9]: 3.7 µM (≈ 1.24 µg/mL) | Activity [16]: inactive

O=C(NC1CCCCCCC1)c1cc2ccc(Br)cc2[nH]1
Papp at 18 h, 500 µM [7]: 81 nm/s | solubility at 24 h, 100 µM [9]: 1.6 µM (≈ 0.559 µg/mL)

Cc1cc(C)c2cc(C(=O)NC3CCCCCCC3)[nH]c2c1
Peff ([7]; pampa, 18 h, 500 µM): 14 10^-6 cm/s | MIC90 [1]: 0.013 µM (≈ 0.00388 µg/mL) | solubility at 24 h, 100 µM [9]: 5.7 µM (≈ 1.7 µg/mL)

c1ccc2sc(CNC3CCCCCCC3)cc2c1
Ratio [3]: 5 | Ratio [6]: 5 | Ratio [8]: 5 | solubility at 24 h, 100 µM [9]: 73.5 µM (≈ 20.1 µg/mL) | Ratio [10]: 5 | Ratio [11]: 5 | Ratio [12]: 5 | Ratio [13]: 5 | Ratio [14]: 5 | Activity [16]: inactive

c1ccc2[nH]c(CNC3CCCCCCC3)cc2c1
solubility at 24 h, 100 µM [9]: 99.7 µM (≈ 25.6 µg/mL)

c1ccc2[se]c(CNC3CCCCCCC3)cc2c1
solubility at 24 h, 100 µM [9]: 77.8 µM (≈ 24.9 µg/mL) | Activity [16]: inactive

CC1(C)CCC(NC(=O)c2cc3c(Cl)cc(Cl)cc3[nH]2)CC1
MIC50 [1]: 0.015 µM (≈ 0.00509 µg/mL)

Brc1ccc2cc(CNC3CCCCCCC3)[nH]c2c1
Papp at 18 h, 500 µM [7]: 134 nm/s | solubility at 24 h, 100 µM [9]: 35.4 µM (≈ 11.9 µg/mL)

CC(C)NCC(O)COc1cccc2ccccc12 (stereo not given) [PROPRANOLOL]
Papp at 18 h, 500 µM [7]: 119 nm/s

— ChEMBL document CHEMBL5226308, “Amide-Amine Replacement in Indole-2-carboxamides Yields Potent Mycobactericidal Agents with Improved Water Solubility” (ACS Med Chem Lett, 2021)
